The compounds below were run against T1, hSCN3A sodium channels (Homo sapiens, UniProt Q9NY46) (assay: hSCN3A electrophysiology, whole-cell patch-clamp or PatchXpress 7000, estimated IC-50 (Table B)). Conditions: estimated IC-50; hSCN3A cells, whole-cell patch-clamp or PatchXpress 7000; read-out: SCN3A EIC-50.
T1 construct: expressed in transfected cells
Type: cell-based
Protocol: Human Embryonic Kidney (HEK) cells were transfected with an hSCN3A construct using lipofectamine reagent (Invitrogen), using standard techniques. […] Clones were screened for expression using the whole-cell voltage-clamp technique.
HEK cells stably transfected with hSCN3A were maintained in DMEM medium supplemented with 10% heat-inactivated fetal bovine serum and 400 μg/ml G418 sulfate in an incubator at 37° C. with a humidified atmosphere of 10% CO2. […] For electrophysiological studies, cells were removed from the culture flask by brief trypsinization and replated at low density onto glass cover slips. Cells were typically used for electrophysiological experiments within 24 to 72 h after plating.
All recordings were made at room temperature (22-24° C.) using AXOPATCH 200B amplifiers and PCLAMP software (Axon Instruments, Burlingame, Calif.) or PatchXpress 7000 hardware and associated software (Axon Instruments, Burlingame, Calif.).
Current records were acquired at 20 to 50 KHz and filtered at 5 to 10 KHz.
HEK cells stably transfected with hSCN3A were viewed under Hoffman contrast optics and placed in front of an array of flow pipes emitting either control or compound-containing extracellular solutions. All compounds were dissolved in dimethyl sulfoxide to make 10 mM stock solutions, which were then diluted into extracellular solution to attain the final concentrations desired.
The voltage-dependence of inactivation was determined by applying a series of depolarizing prepulses (8 sec long in 10 mV increments) from a negative holding potential. The voltage was then immediately stepped to 0 mV to assess the magnitude of the sodium current. Currents elicited at 0 mV were plotted as a function of prepulse potential to allow estimation of the voltage midpoint of inactivation (V1/2). Cells were then voltage clamped at the empirically determined V1/2.
Compounds were tested for their ability to inhibit hSCN3A sodium channels by activating the channel with a 20 msec voltage step to 0 mV following an 8 second conditioning prepulse to the empirically determined V1/2 (Table B). Compound effect (% inhibition) was determined by difference in current amplitude before and after application of test compounds. […] Inhibition values <20% and >80% were excluded from the calculation.
In some cases electrophysiological assays were conducted with PatchXpress 7000 hardware and associated software (Molecular Devices Corp) (Table B). All assay buffers and solutions were identical to those used in conventional whole-cell voltage clamp experiments described above. hSCN3A cells were grown as above to 50%-80% confluency and harvested by trypsinization. Trypsinized cells were washed and resuspended in extracellular buffer at a concentration of 1×10^6 cells/ml. The onboard liquid handling facility of the PatchXpress was used for dispensing cells and application of test compounds. Determination of the voltage midpoint of inactivation was as described for conventional whole-cell recordings. Cells were then voltage-clamped to the empirically determined V1/2 and current was activated by a 20 msec voltage step to 0 mV.

T1 sequence (Q9NY46 whole entry): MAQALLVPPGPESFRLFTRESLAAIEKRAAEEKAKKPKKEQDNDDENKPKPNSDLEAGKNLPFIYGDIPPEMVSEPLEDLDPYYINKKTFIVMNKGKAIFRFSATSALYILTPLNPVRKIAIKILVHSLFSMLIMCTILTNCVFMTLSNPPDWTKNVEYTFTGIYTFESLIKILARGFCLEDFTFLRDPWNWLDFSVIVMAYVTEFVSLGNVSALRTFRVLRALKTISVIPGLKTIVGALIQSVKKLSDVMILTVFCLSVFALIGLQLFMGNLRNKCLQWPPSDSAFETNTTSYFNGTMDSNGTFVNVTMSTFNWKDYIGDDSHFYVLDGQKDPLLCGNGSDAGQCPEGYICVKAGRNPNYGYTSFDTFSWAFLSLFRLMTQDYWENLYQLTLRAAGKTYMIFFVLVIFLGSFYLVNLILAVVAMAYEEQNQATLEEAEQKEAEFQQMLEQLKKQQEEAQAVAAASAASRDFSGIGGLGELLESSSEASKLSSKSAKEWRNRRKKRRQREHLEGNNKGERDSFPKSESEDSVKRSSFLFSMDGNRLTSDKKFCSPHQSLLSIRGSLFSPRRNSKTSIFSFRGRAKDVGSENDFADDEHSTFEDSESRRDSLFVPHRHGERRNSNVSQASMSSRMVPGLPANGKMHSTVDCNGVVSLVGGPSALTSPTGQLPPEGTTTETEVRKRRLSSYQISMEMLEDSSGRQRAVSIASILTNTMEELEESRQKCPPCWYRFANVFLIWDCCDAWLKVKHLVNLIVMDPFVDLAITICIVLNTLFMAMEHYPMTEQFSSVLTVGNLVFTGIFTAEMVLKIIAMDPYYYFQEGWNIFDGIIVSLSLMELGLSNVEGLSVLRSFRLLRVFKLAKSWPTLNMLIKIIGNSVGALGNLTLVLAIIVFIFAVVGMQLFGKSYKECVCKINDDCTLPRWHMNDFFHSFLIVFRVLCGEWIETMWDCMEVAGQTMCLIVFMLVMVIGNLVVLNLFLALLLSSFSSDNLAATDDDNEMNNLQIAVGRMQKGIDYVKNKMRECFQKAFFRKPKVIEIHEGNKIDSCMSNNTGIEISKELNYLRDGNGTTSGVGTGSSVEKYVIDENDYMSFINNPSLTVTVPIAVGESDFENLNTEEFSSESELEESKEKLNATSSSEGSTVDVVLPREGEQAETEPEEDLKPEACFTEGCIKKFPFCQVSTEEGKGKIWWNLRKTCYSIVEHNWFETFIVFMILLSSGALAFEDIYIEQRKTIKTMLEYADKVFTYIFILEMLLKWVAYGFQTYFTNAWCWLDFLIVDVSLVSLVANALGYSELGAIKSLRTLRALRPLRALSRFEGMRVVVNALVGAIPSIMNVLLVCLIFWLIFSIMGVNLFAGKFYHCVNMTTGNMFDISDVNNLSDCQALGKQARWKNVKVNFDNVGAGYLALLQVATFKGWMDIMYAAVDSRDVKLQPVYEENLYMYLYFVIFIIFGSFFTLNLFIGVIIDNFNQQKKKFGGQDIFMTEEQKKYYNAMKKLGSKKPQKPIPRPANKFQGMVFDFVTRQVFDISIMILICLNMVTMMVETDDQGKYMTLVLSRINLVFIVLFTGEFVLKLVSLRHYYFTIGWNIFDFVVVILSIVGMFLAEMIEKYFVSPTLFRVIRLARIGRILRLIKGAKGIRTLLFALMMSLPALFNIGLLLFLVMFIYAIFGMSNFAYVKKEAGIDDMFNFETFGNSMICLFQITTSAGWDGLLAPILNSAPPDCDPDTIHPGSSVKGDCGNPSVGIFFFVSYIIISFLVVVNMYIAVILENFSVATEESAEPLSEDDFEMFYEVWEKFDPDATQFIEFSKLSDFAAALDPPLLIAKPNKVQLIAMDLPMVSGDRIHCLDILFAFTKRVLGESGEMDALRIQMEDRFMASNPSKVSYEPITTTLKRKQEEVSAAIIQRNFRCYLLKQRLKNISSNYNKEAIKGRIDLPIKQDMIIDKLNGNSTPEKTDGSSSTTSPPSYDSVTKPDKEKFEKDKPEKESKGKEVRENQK

Q: How did the IC50 turn out when `CC1(c2ccc(Cl)cc2)CCN(C(=O)c2ccc(S(=O)(=O)Nc3nccs3)cc2)CC1` [Example 195, 4-{[4-(4-Chlorophenyl)-4-methylpiperidin-1-yl]carbonyl}-N-1,3-thiazol-2-yl-benzenesulfonamide] was run?
A: Its IC50 is 280 nM.

Q: `Cc1cc(Cl)ccc1CNC(=O)c1ccc(S(=O)(=O)Nc2nccs2)cc1` [Example 414, N-(4-chloro-2-methylbenzyl)-4-[(1,3-thiazol-2-ylamino)sulfonyl] benzamide] was tested. Which IC50 did it give?
A: The IC50 was 240 nM.

Q: Which IC50 does the source give for `O=C(NCc1ccc(F)c(OC(F)(F)F)c1)c1ccc(S(=O)(=O)Nc2ncc(Cl)s2)c(F)c1` [Example 313, 4-{[(5-Chloro-1,3-thiazol-2-yl)amino]sulfonyl}-3-fluoro-N-[4-fluoro-3-(trifluoromethoxy)benzyl]benzamide] here?
A: Its IC50 is 160 nM.

Q: `O=C(c1ccc(S(=O)(=O)Nc2nccs2)cc1)N1CCSCC1c1ccccc1Cl` (stereo not shown) [Example 46, 4-{[3-(2-Chlorophenyl)thiomorpholin-4-yl]carbonyl}-N-1,3-thiazol-2-ylbenzenesulfonamide] was tested. Which IC50 did it give?
A: The IC50 was 1550 nM.

Q: For `O=C(NCc1ccc(C(F)(F)F)cc1)c1ccc(S(=O)(=O)Nc2cnoc2)cc1` [Example 23, 4-[(Isoxazol-4-ylamino)sulfonyl]-N-[4-(trifluoromethyl)benzyl]benzamide], which IC50 is on record?
A: Its IC50 is 23300 nM.

Q: With `Cc1ncc(NS(=O)(=O)c2ccc(C(=O)NCc3ccc(C(F)(F)F)cc3)cc2)s1` [Example 16, 4-{[(2-Methyl-1,3-thiazol-5-yl)amino]sulfonyl}-N-[4-(trifluoromethyl)benzyl]benzamide] as the compound, how does the IC50 read?
A: Its IC50 is > 10000 nM.

Q: How did the IC50 turn out when `O=C(NCc1ccc(OC(F)(F)F)cc1)c1ccc(S(=O)(=O)Nc2nccs2)cc1` [Example 402, 4-[(1,3-Thiazol-2-ylamino)sulfonyl]-N-[4-(trifluoromethoxy)benzyl]benzamide] was run?
A: The IC50 was 190 nM.

Q: Which IC50 does the source give for `O=C(NCc1ccc(Cl)nc1)c1ccc(S(=O)(=O)Nc2nccs2)cc1` [Example 407, N-[(6-chloropyridin-3-yl)methyl]-4-[(1,3-thiazol-2-ylamino)sulfonyl] benzamide] here?
A: The IC50 was 1780 nM.

Q: How did the IC50 turn out when `O=C(NCc1ccc(OC(F)(F)F)c(F)c1)c1ccc(S(=O)(=O)Nc2ncns2)cc1Cl` [Example 376, 2-Chloro-N-[3-fluoro-4-(trifluoromethoxy)benzyl]-4-[(1,2,4-thiadiazol-5-ylamino)sulfonyl] benzamide] was run?
A: Its IC50 is 590 nM.

Q: With `O=C(NCc1cccc(OC(F)(F)F)c1)c1ccc(S(=O)(=O)Nc2ncc(Cl)s2)c(Cl)c1` [Example 364, 3-Chloro-4-{[(5-chloro-1,3-thiazol-2-yl)amino]sulfonyl}-N-[3-(trifluoromethoxy)benzyl]benzamide] as the compound, how does the IC50 read?
A: The IC50 was 2180 nM.

Q: For `CN(Cc1ccc(C(F)(F)F)cc1)C(=O)c1ccc(S(=O)(=O)Nc2ncc(Cl)s2)cc1` [Example 41, 4-{[(5-Chloro-1,3-thiazol-2-yl)amino]sulfonyl}-N-methyl-N-[4-(trifluoromethyl)benzyl]benzamide], which IC50 is on record?
A: Its IC50 is 2350 nM.

Q: How did the IC50 turn out when `O=C(NCc1ccc(F)c(Cl)c1)c1ccc(S(=O)(=O)Nc2nccs2)cc1F` [Example 332, N-(3-chloro-4-fluorobenzyl)-2-fluoro-4-[(1,3-thiazol-2-ylamino)sulfonyl] benzamide] was run?
A: Its IC50 is 380 nM.

Q: With `N#CCCN(Cc1ccccc1)C(=O)c1ccc(S(=O)(=O)Nc2nccs2)cc1` [Example 218, N-benzyl-N-(2-cyanoethyl)-4-[(1,3-thiazol-2-yl-amino)sulfonyl]benzamide] as the compound, how does the IC50 read?
A: The IC50 was 21200 nM.

Q: How did the IC50 turn out when `O=C(NCc1cccc(OC(F)(F)F)c1)c1ccc(S(=O)(=O)Nc2ncc(Cl)s2)cc1` [Example 29, 4-{[(5-Chloro-1,3-thiazol-2-yl)amino]sulfonyl}-N-[3-(trifluoromethoxy)benzyl]benzamide] was run?
A: Its IC50 is 170 nM.

Q: For `Cn1cc(NS(=O)(=O)c2ccc(C(=O)NCc3ccc(C(F)(F)F)cc3)cc2)cn1` [Example 10, 4-{[(1-Methyl-1H-pyrazol-4-yl)amino]sulfonyl}-N-[4-(trifluoromethyl)benzyl]benzamide], which IC50 is on record?
A: The IC50 was 1510 nM.

Q: With `O=C(NCc1ccc(OC(F)(F)F)cc1)c1ccc(S(=O)(=O)Nc2ncc(Cl)s2)c(F)c1` [Example 314, 4-{[(5-Chloro-1,3-thiazol-2-yl)amino]sulfonyl}-3-fluoro-N-[4-(trifluoromethoxy)benzyl]benzamide] as the compound, how does the IC50 read?
A: The IC50 was 70 nM.

Q: Which IC50 does the source give for `O=C(c1ccc(S(=O)(=O)Nc2nccs2)cc1)N1CCC(O)(c2cccc(F)c2)CC1` [Example 220, 4-{[4-(3-Fluorophenyl)-4-hydroxypiperidin-1-yl]carbonyl}-N-1,3-thiazol-2-yl-benzenesulfonamide] here?
A: Its IC50 is > 1000 nM.

Q: With `Cc1nn(C)c(C)c1NS(=O)(=O)c1ccc(C(=O)NCc2ccc(C(F)(F)F)cc2)cc1` [Example 27, N-[4-(Trifluoromethyl)benzyl]-4-{[(1,3,5-trimethyl-1H-pyrazol-4-yl)amino]sulfonyl}benzamide] as the compound, how does the IC50 read?
A: The IC50 was 23300 nM.

Q: Which IC50 does the source give for `O=C(NCc1ccc(C(F)(F)F)cc1)c1ccc(S(=O)(=O)Nc2nccs2)c(F)c1` [Example 303, 3-Fluoro-4-[(1,3-thiazol-2-ylamino)sulfonyl]-N-[4-(trifluoromethyl)benzyl]benzamide] here?
A: Its IC50 is 140 nM.

Q: Which IC50 does the source give for `O=C(NCc1ccc(F)c(OC(F)(F)F)c1)c1ccc(S(=O)(=O)Nc2nccs2)c(F)c1` [Example 300, 3-Fluoro-N-[4-fluoro-3-(trifluoromethoxy)benzyl]-4-[(1,3-thiazol-2-ylamino)sulfonyl]benzamide] here?
A: The IC50 was 130 nM.

Q: With `O=C(NCc1ccc(Cl)c(F)c1)c1ccc(S(=O)(=O)Nc2ncc(Cl)s2)cc1F` [Example 355, N-(4-chloro-3-fluorobenzyl)-4-{[(5-chloro-1,3-thiazol-2-yl)amino]sulfonyl}-2-fluorobenzamide] as the compound, how does the IC50 read?
A: Its IC50 is 150 nM.

Q: `O=C(NCc1ccc(C(F)(F)F)c(F)c1)c1ccc(S(=O)(=O)Nc2ncc(Cl)s2)cc1F` [Example 356, 4-{[(5-Chloro-1,3-thiazol-2-yl)amino]sulfonyl}-2-fluoro-N-[3-fluoro-4-(trifluoromethyl)benzyl]benzamide] was tested. Which IC50 did it give?
A: Its IC50 is 210 nM.

Q: With `O=C(NCc1ccc(C(F)(F)F)cc1)c1cccc(S(=O)(=O)Nc2nccs2)c1` [Example 349, 3-[(1,3-Thiazol-2-ylamino)sulfonyl]-N-[4-(trifluoromethyl)benzyl]benzamide] as the compound, how does the IC50 read?
A: The IC50 was 9870 nM.

Q: With `O=C(NCCc1ccccc1Cl)c1ccc(S(=O)(=O)Nc2nccs2)cc1` [Example 96, N-[2-(2-chlorophenyl)ethyl]-4-[(1,3-thiazol-2-ylamino)sulfonyl]benzamide] as the compound, how does the IC50 read?
A: Its IC50 is 910 nM.

Q: Which IC50 does the source give for `O=C(NCc1ccc(Cl)c(Cl)c1)c1ccc(S(=O)(=O)Nc2ncc(Cl)s2)cc1` [Example 35, 4-{[(5-Chloro-1,3-thiazol-2-yl)amino]sulfonyl}-N-(3,4-dichlorobenzyl)benzamide] here?
A: Its IC50 is 40 nM.

Q: How did the IC50 turn out when `O=C(Nc1nccc2cccnc12)c1ccc(S(=O)(=O)Nc2nccs2)cc1` [Example 116, N-1,7-naphthyridin-8-yl-4-[(1,3-thiazol-2-ylamino)sulfonyl]benzamide] was run?
A: Its IC50 is > 100 nM.

Q: `O=C(c1ccc(S(=O)(=O)Nc2nccs2)cc1)N1CC[C@@H](Oc2ccccc2Cl)C1` [Example 247, 4-{[(3R)-3-(2-chlorophenoxy)pyrrolidin-1-yl]carbonyl}-N-1,3-thiazol-2-yl-benzenesulfonamide] was tested. Which IC50 did it give?
A: Its IC50 is > 1000 nM.

Same assay, conditions: read-out: SCN3A EIC-50

Q: With `O=C(NCc1ccc(C(F)(F)F)c(Cl)c1)c1ccc(S(=O)(=O)Nc2ncc(Cl)s2)cn1` [Example 346, 5-{[(5-Chloro-1,3-thiazol-2-yl)amino]sulfonyl}-N-[3-chloro-4-(trifluoromethyl)benzyl] pyridine-2-carboxamide] as the compound, how does the IC50 read?
A: Its IC50 is 70 nM.

From patent US8741934B2, “Inhibitors of ion channels” (Pfizer Limited, priority 2007, dated 2014)
